Legend:
HeLa = test: Cytotoxicity against human HeLa cells assessed as reduction in cell viability measured after 72 hrs by Alamar blue assay; assay type: functional
Hepatitis C virus [1] = test: Antiviral activity against HCV GT1b-genotype assessed as inhibition of viral replication; assay type: functional, organism-based, Hepacivirus hominis
[2] = system: Respiratory syncytial virus; test: Antiviral activity against RSV; assay type: functional, organism-based; settings: human respiratory syncytial virus
Huh-7 = test: Cytotoxicity against human Huh-7 cells assessed as reduction in cell viability […] after 72 hrs by alamar blue assay; assay type: functional
[3] = system: Bovine viral diarrhea virus 1; test: Antiviral activity against Bovine viral diarrhea virus 1 infected in MDBK cells assessed as reduction in viral replication; assay type: functional, organism-based; settings: Bovine viral diarrhea virus isolates and strains
[4] = system: Bovine viral diarrhea virus 1; test: Antiviral activity against Bovine viral diarrhea virus 1; assay type: functional, organism-based; settings: Bovine viral diarrhea virus isolates and strains
[5] = Cytotoxicity against African green monkey Vero cells assessed as reduction in cell viability […] after 72 hrs by alamar blue assay; assay type: toxicity, cell-based; settings: chlorocebus sabaeus
Human rhinovirus sp. = test: Antiviral activity against HRV; assay type: functional, organism-based
[6] = Cytotoxicity against human MRC5 cells assessed as reduction in cell viability measured after 72 hrs by alamar blue assay; assay type: toxicity, cell-based
[7] = Cytotoxicity against human HEK293 cells assessed as reduction in cell viability […] after 72 hrs by alamar blue assay; assay type: toxicity, cell-based
[8] = Cytotoxicity against human MT2 cells assessed as cell viability measured after 72 hrs by MTT assay; assay type: toxicity, cell-based
[9] = system: Human immunodeficiency virus 1; test: Antiviral activity against HIV-1; assay type: functional, organism-based
Hepatitis C virus [10] = test: Antiviral activity against HCV genotype 1b expressing NS5B S365A mutant variant; assay type: functional, organism-based, Hepacivirus hominis
Hepatitis C virus [11] = test: Antiviral activity against HCV genotype 1b; assay type: functional, organism-based, Hepacivirus hominis
[12] = Oral bioavailability in rat at 3 mg/kg; assay type: ADME, organism-based; settings: in vivo
Hepatitis C virus [13] = test: Antiviral activity against HCV genotype 1a; assay type: functional, organism-based, Hepacivirus hominis
Hepatitis C virus [14] = test: Inhibition of HCV genotype 2a; assay type: functional, organism-based, Hepacivirus hominis
Hepatitis C virus [15] = test: Inhibition of HCV genotype 3a; assay type: functional, organism-based, Hepacivirus hominis
[16] = AUC in cynomolgus monkey at 3mg/kg, po measured after 24 hrs by LC-MS/MS analysis; assay type: ADME, organism-based, Macaca fascicularis; set-up: time 24 hrs, route po; settings: in vivo
in vivo [17] = settings: Sprague-Dawley, rat, iv, 5 mg/kg
Description: Half life in Sprague-Dawley rat at 5 mg/kg, iv measured after 24 hrs by HPLC method

Hepatitis C virus [18] = test: Inhibition of HCV genotype 1a; assay type: functional, organism-based, Hepacivirus hominis
[19] = AUC in Sprague-Dawley rat at 15 mg/kg, po measured after 24 hrs by LC-MS/MS analysis; assay type: ADME, organism-based; set-up: dose 15 mg/kg, time 24 hrs, route po; settings: in vivo
in vivo [20] = settings: beagle, dog, iv, 1 mg/kg
Description: Half life in Beagle dog at 1 mg/kg, iv measured after 24 hrs by HPLC method

in vivo [21] = settings: cynomolgus monkey, po, 3 mg/kg
Hepatitis C virus [22] = test: Inhibition of HCV genotype 6a; assay type: functional, organism-based, Hepacivirus hominis
Hepatitis C virus [23] = test: Inhibition of HCV genotype 2b; assay type: functional, organism-based, Hepacivirus hominis
Hepatitis C virus [24] = test: Antiviral activity against Hepatitis C virus infected RNA assessed as reduction in viral replication at 600 mg, po BID measured for 3 days; assay type: functional, Hepacivirus hominis; settings: time 3 day
Hepatitis C virus [25] = test: Antiviral activity against HCV genotype 3a; assay type: functional, organism-based, Hepacivirus hominis
[26] = Drug concentration in Sprague-Dawley rat plasma at 15 mg/kg, po measured after 24 hrs by LC-MS/MS analysis; assay type: ADME, organism-based
in vivo [27] = settings: FVB, mouse, po, 5 mg/kg
in vivo [28] = settings: male, Sprague-Dawley, rat, po, 15 mg/kg
[29] = Drug concentration in Beagle dog plasma at 6 mg/kg, po measured after 24 hrs by LC-MS/MS analysis; assay type: ADME, organism-based, Canis lupus familiaris
in vivo [30] = settings: cynomolgus monkey, iv, 1 mg/kg
Description: Half life in cynomolgus monkey at 1 mg/kg, iv measured after 24 hrs by HPLC method

in vivo [31] = settings: FVB, mouse, iv, 2 mg/kg
Description: Half life in FVB mouse at 2 mg/kg, iv measured after 24 hrs by HPLC method

Hepatitis C virus [32] = test: Antiviral activity against HCV genotype 2a; assay type: functional, organism-based, Hepacivirus hominis
Hepatitis C virus [33] = test: Antiviral activity against Hepatitis C virus infected RNA assessed as reduction in viral replication at 400 mg, po BID measured for 3 days; assay type: functional, Hepacivirus hominis; settings: time 3 day
Hepatitis C virus [34] = test: Antiviral activity against HCV genotype 4a; assay type: functional, organism-based, Hepacivirus hominis
Hepatitis C virus [35] = test: Inhibition of HCV genotype 4a; assay type: functional, organism-based, Hepacivirus hominis
[36] = Drug concentration in Sprague-Dawley liver at 15 mg/kg, po measured after 24 hrs by LC-MS/MS analysis; assay type: ADME, organism-based; settings: rat, read-out: Ct
Hepatitis C virus [37] = test: Antiviral activity against Hepatitis C virus infected RNA assessed as reduction in viral replication at 200 mg, po BID measured for 3 days; assay type: functional, Hepacivirus hominis; settings: time 3 day
Hepatitis C virus [38] = test: Inhibition of HCV genotype 5a; assay type: functional, organism-based, Hepacivirus hominis
[39] = Drug concentration in Beagle dog liver at 6 mg/kg, po measured after 24 hrs by LC-MS/MS analysis; assay type: ADME, organism-based, Canis lupus familiaris; settings: read-out: Ct
[40] = AUC in Beagle dog at 3 mg/kg, po measured after 24 hrs by LC-MS/MS analysis; assay type: ADME, organism-based, Canis lupus familiaris; set-up: dose 3 mg/kg, time 24 hrs, route po; settings: in vivo
[41] = Drug concentration in cynomolgus monkey liver at 10 mg/kg, po measured after 24 hrs by LC-MS/MS analysis; assay type: ADME, organism-based, Macaca fascicularis; settings: read-out: Ct
[42] = AUC in FVB mouse at 5 mg/kg, po measured after 24 hrs by LC-MS/MS analysis; assay type: ADME, organism-based; set-up: dose 5 mg/kg, time 24 hrs, route po; settings: in vivo
Hepatitis C virus [43] = test: Inhibition of HCV genotype 1b; assay type: functional, organism-based, Hepacivirus hominis
[44] = Drug concentration in FVB mouse liver at 5 mg/kg, po measured after 24 hrs by LC-MS/MS analysis; assay type: ADME, organism-based; settings: read-out: Ct
Hepatitis C virus [45] = test: Antiviral activity against HCV genotype 1b by replicon assay; assay type: functional, organism-based, Hepacivirus hominis

Question: For `C[C@H](NC(=O)OCc1ccccc1)C(=O)Nc1ccc(C2S/C(=N\c3cccc(F)c3)N(Cc3ccco3)C2=O)cc1` (some centres not stated), which CC50 (HeLa) is on record?
Answer: The CC50 was > 100000 nM.

Question: What about the EC50 (Hepatitis C virus [1]) of the same compound?
Answer: Its EC50 is 570 nM.

Question: What about the EC50 [2] of the same compound?
Answer: Its EC50 is 23000 nM.

Question: What about the CC50 (Huh-7) of the same compound?
Answer: Its CC50 is > 100000 nM.

Question: What about the EC50 [3] of the same compound?
Answer: Its EC50 is 24000 nM.

Question: And the EC50 [4]?
Answer: Its EC50 is 17000 nM.

Question: And the CC50 at 72 h [5]?
Answer: Its CC50 at 72 h is > 150000 nM.

Question: And the EC50 (Human rhinovirus sp.)?
Answer: Its EC50 is > 100000 nM.

Question: What about the CC50 at 72 h [6] of the same compound?
Answer: The CC50 at 72 h was 41000 nM.

Question: And the CC50 at 72 h [7]?
Answer: Its CC50 at 72 h is > 50000 nM.

Question: And the CC50 at 72 h [8]?
Answer: Its CC50 at 72 h is 23000 nM.

Question: What about the EC50 [9] of the same compound?
Answer: Its EC50 is 41000 nM.

Question: Which EC50 (Hepatitis C virus [10]) does the source give for `O=C(O)/C=C/c1ccc(NC(=O)C2(NC(=O)c3ccc4c(C5CCCCC5)c5n(c4c3)CC(=O)Nc3ccccc3-5)CCCC2)cc1` here?
Answer: The EC50 was 8 nM.

Question: Which results are given for `O=C1Cn2c(c(C3CCCCC3)c3ccc(C(=O)O)cc32)-c2ccccc2N1`?
Answer: EC50 (Hepatitis C virus [11]): < 10 nM; bioavailability [12]: 17%; EC50 (Hepatitis C virus [13]): < 10 nM; EC50 (Hepatitis C virus [10]): 170 nM

Question: Which results are given for `C=C[C@@H]1C[C@]1(NC(=O)[C@@H]1C[C@@H](Oc2ncc(OC)c3ccc(Cl)cc23)CN1C(=O)[C@@H](NC(=O)OC(C)(C)C)C(C)(C)C)C(=O)NS(=O)(=O)C1CC1`?
Answer: IC50 (Hepatitis C virus [14]): 15 nM; IC50 (Hepatitis C virus [15]): 320 nM; AUC at 24 h [16]: 0.41 µM·h; half-life at 24 h (in vivo [17]): 4.2 h; IC50 (Hepatitis C virus [18]): 0.7 nM; AUC at 24 h [19]: 1 µM·h; half-life at 24 h (in vivo [20]): 1 h; EC50 (Hepatitis C virus [11]): 1.2 nM; bioavailability (in vivo [21]): 11%; IC50 (Hepatitis C virus [22]): 0.9 nM; IC50 (Hepatitis C virus [23]): 78 nM; Activity (Hepatitis C virus [24]): 2.84 log10 IU/mL; EC50 (Hepatitis C virus [25]): 1160 nM; concentration at 24 h [26]: 40 nM; bioavailability (in vivo [27]): 28%; bioavailability (in vivo [28]): 14%; concentration at 24 h [29]: 6 nM; half-life at 24 h (in vivo [30]): 1.3 h; half-life at 24 h (in vivo [31]): 4.6 h; EC50 (Hepatitis C virus [32]): 230 nM; Activity (Hepatitis C virus [33]): 3.57 log10 IU/mL; EC50 (Hepatitis C virus [34]): 1.8 nM; IC50 (Hepatitis C virus [35]): 1.6 nM; concentration at 24 h [36]: 1200 nM; Activity (Hepatitis C virus [37]): 3.09 log10 IU/mL; IC50 (Hepatitis C virus [38]): 1.7 nM; concentration at 24 h [39]: 2500 nM; AUC at 24 h [40]: 2.2 µM·h; concentration at 24 h [41]: 440 nM; AUC at 24 h [42]: 0.54 µM·h; IC50 (Hepatitis C virus [43]): 0.3 nM; concentration at 24 h [44]: 710 nM

Question: For `O=C(Nc1ccc(/C=C/c2ccc(NC(=O)[C@@H]3CCCN3C(=O)CC3CC3)cc2)cc1)[C@@H]1CCCN1C(=O)CC1CC1`, which EC50 (Hepatitis C virus [11]) is on record?
Answer: Its EC50 is 62 nM.

Question: What does the source list for `C=C[C@@H]1C[C@]1(NC(=O)[C@@H]1C[C@@H](Oc2cc(-c3ccccc3)nc3cc(OC)ccc23)CN1C(=O)[C@@H](NC(=O)OC(C)(C)C)C(C)(C)C)C(=O)O`?
Answer: IC50 (Hepatitis C virus [18]): 54 nM; EC50 (Hepatitis C virus [45]): 550 nM
